Reference: ChEMBL document CHEMBL2021909, “Isoflavones inhibit the clonogenicity of human colon cancer cells” (2012)

Key:
[1] = tested on: HCT-116; assay: Inhibition of human HCT116 clonogenicity after 7 days by crystal violet staining by densitometric analysis; assay type: functional
[2] = tested on: HCT-116; assay: Cell cycle arrest in human HCT116 cells assessed as accumulation at G2/M phase at 20 uM after 48 hrs by flow cytometry (Rvb =23.23 %); assay type: functional
[3] = tested on: HCT-116; assay: Antiproliferative activity against human HCT116 assessed as growth inhibition after 24 to 48 hrs by WST-8 assay; assay type: functional, cell-based
[4] = tested on: HCT-116; assay: Cell cycle arrest in human HCT116 cells assessed as accumulation at S phase at 20 uM after 48 hrs by flow cytometry (Rvb =21.16 %); assay type: functional
[5] = tested on: HCT-116; assay: Cell cycle arrest in human HCT116 cells assessed as accumulation at G1 phase at 20 uM after 48 hrs by flow cytometry (Rvb =45.27 %); assay type: functional
[6] = tested on: HCT-116; assay: Cell cycle arrest in human HCT116 cells assessed as accumulation at sub-G1 phase at 20 uM after 48 hrs by flow cytometry (Rvb =7.90 %); assay type: functional
[7] = tested on: HCT-116; assay: Antiproliferative activity against human HCT116 assessed as growth inhibition at 5 to 40 uM hrs by WST-8 assay; assay type: functional, cell-based; conditions: TDE = time-dependent effect

Row | Structure (SMILES) | inhibition (INH) [1] [%] | also measured
1 | COc1ccc(-c2coc3cc(OC)c(OC)cc3c2=O)cc1OC | 85.3 | 
2 | O=c1c(-c2ccc(O)cc2)coc2c(O)c(O)ccc12 | 64 | 
3 | COc1cc(OC)c2c(=O)c(-c3ccccc3Cl)coc2c1 | 63.3 | 
4 | COc1cc2occ(-c3ccccc3)c(=O)c2cc1OC | 91.3 | Activity [2]: 14.34%; growth inhibition (GI) [3]: Dose-dependent effect; Activity [4]: 14.97%; Activity [5]: 47.46%; Activity [6]: 21.34%; growth inhibition (GI) [7]: tde
5 | COc1cc(O)c2c(=O)c(-c3ccc(O)cc3)coc2c1 [PRUNETIN] | 74 | 
6 | COc1cc(OC)c2c(=O)c(-c3ccc(OC)c(OC)c3)coc2c1 | 22.3 | 
7 | COc1cc2occ(-c3ccccc3Cl)c(=O)c2cc1Cl | 5.3 | 
8 | COc1cc2c(=O)c(-c3ccc(OC(C)=O)cc3)coc2cc1O | 26.7 | 
9 | COc1cc(OC)c2c(=O)c(-c3cccc(Cl)c3)coc2c1 | 82.7 | 
10 | Cc1cc2occ(-c3ccc(Cl)cc3Cl)c(=O)c2cc1Cl | 12.7 | 
11 | Cc1c(O)ccc2c(=O)c(-c3ccc(Cl)cc3)coc12 | 46.3 | 
12 | COc1cc(OC)c2c(=O)c(-c3ccc(Cl)cc3)coc2c1 | 71.3 | 
13 | COc1cc2c(=O)c(-c3ccccc3)coc2cc1O | 37.3 | 
14 | COc1ccc(-c2coc3c(OC)c(OC)ccc3c2=O)cc1 | 70 | 
15 | COc1ccc2c(=O)c(-c3ccc(Cl)cc3)coc2c1C | 58.3 | 
16 | COc1ccc(-c2coc3cc(O)c(OC)cc3c2=O)cc1 [CASTANIN] | 4.3 | 
17 | COc1ccc2c(=O)c(-c3ccc(OC)c(OC)c3)coc2c1 | 35.7 | 
18 | COc1ccc2c(=O)c(-c3ccccc3)coc2c1C | 54 | 
19 | COc1cc(C)c2c(=O)c(-c3ccccc3)coc2c1 | 55.3 | 
20 | Cc1c(O)ccc2c(=O)c(-c3ccccc3)coc12 | 27.7 | 
21 | COc1ccc2c(=O)c(-c3ccccc3)coc2c1 | 42 | 
22 | COc1ccc(-c2coc3c(C)c(OC)ccc3c2=O)cc1 | 52.7 | 
23 | COc1cc(OC)c2c(=O)c(-c3ccc(Br)cc3)coc2c1 | 13.7 | 
